In patent US10544092B2 (priority 2015, dated 2020):

What was measured:
Assay type in all cases: in vivo
[1] = test system: melon bacterial fruit blotch; assay: control of melon bacterial fruit blotch (seed soaking); settings: dosage 800 mg/L, after 2 weeks
Description: Melon bacterial fruit blotch: The testing compound is dissolved in a small amount of DMF and diluted with water to the desired concentration. The pathogenic bacteria in the stable growth phase is mixed with the testing solution. After melon seeds (accelerating germination) soaked in the solution containing pathogenic bacteria and compound for 0.5 hour, the seeds are sown in earthworm soil cup and then transferred into a greenhouse to allow disease to develop. After 2 weeks, The activity of the compound is evaluated based on germination or growth of control treatment

[2] = test system: soft rot of chinese cabbage; assay: control of soft rot of chinese cabbage (cut leaves); settings: dosage 400 mg/L, 48 hours
Description: Soft rot of chinese cabbage: Chinese cabbage leaves are cut into 2 cm square and placed on the double filter paper in a petri dish. The testing compound is dissolved in DMF and diluted with water to the desired concentration. The testing solution is sprayed onto the surface of the cabbage leaf and dried in a fume hood. The surface of cabbage leaf is pierced using inoculation needle. A spore suspension (5 μl) of the chinese cabbage soft rot bacteria in the stable growth phase is inoculated onto the breakage of leaves, disease development is allowed to progress in a growth cabinet under dark condition for 48 hours. The activity of the compound is evaluated based on germination or growth of control treatment.

[3] = test system: bacterial leaf streak of rice (Xanthomonas oryzae pv. oryzicola); settings: field trial; for Disease control (%) repeat I / Disease control (%) repeat II / Disease control (%) repeatIII: 400 g a.i./hm^2, a week after 3 spray applications; for Disease control (%) average: 400 g a.i./hm^2, average of repeats I-III

| Molecule | control against melon bacterial fruit blotch [1] | control against soft rot of chinese cabbage [2] | Disease control (%) repeat I [3] | Disease control (%) repeat II [3] | Disease control (%) repeatIII [3] | Disease control (%) average [3] |
| --- | --- | --- | --- | --- | --- | --- |
| N#CC(C#N)=NOCc1cccc(Br)c1 [Compound 9] | 100% | 100% |  |  |  |  |
| COc1ccc(CON=C(C#N)C#N)cc1 [Compound 19] |  | 100% |  |  |  |  |
| N#CC(C#N)=NOCc1ccc([N+](=O)[O-])cc1 [Compound 34] |  | 100% |  |  |  |  |
| N#CC(C#N)=NOCc1cccc(C#N)c1 [Compound 36] |  | 100% |  |  |  |  |
| N#CC(C#N)=NOCc1ccc(C#N)cc1 [Compound 37] |  | 100% |  |  |  |  |
| N#CC(C#N)=NOCc1ccc(Cl)c(Cl)c1 [Compound 59] | 100% | 100% | 56.96% | 58.37% | 51.24% | 55.52% |
| N#CC(C#N)=NOCc1ccc(F)c(F)c1 [Compound 83] | 100% | 100% |  |  |  |  |
| thiazole zinc [reference compound] |  |  | 39.21% | 37.24% | 37.88% | 38.11% |
